Read-outs that look alike come from different tables or passages of the source.
Legend:
[1] = test system: 15 non small cell lung cancer lines representing various EGFR and KRAS mutations; test: Dose response studies against 15 NSCLC lines (alamar blue); type: cell-based, human; settings: 12 point doubling dilution 10 uM to 5 nM, alamar blue
Experimental: Dose response studies against 34 compounds from the pyridazinone and phenylfuran-carboxamide class were conducted. […] In addition, Tarceva was included in these dose response studies.
The dose response studies were done with the following standard procedure. First, the cells were counted and dispensed at 250 cells/well into 384-well microplates with compound. The cells were incubated for 48 hours at 37 C to complete treatment, and then alamar blue was added for an additional 48 hours. Finally, alamar blue reduction was measured and the data was loaded into ORIS, our data screening acquisition platform.

H827 = test: Non Small Cell Lung Cancer Proliferation Assay (Alamar Blue), dose response; settings: Homo sapiens, read-out: H827 Dose Response (uM)
Experimental: (§1) To perform the assay, the Non Small Cell Lung Cancer lines are diluted in media and plated into 384 well microplates at a final density of 250 cells in 45 μL.
(§2) After addition, the cells are placed in cell culture incubator at 37° C. for 48 hours for complete treatment.
(§3) After drug treatment, cytotoxicity is measured by Alamar Blue reduction.
(§4) The cells are incubated for 48 hours at 37° C. to complete the Alamar Blue reduction.
(§5) The final step in the assay is to measure the amount of Alamar Blue reduction. […] The Alamar Blue fluorescence is measured at an excitation of 530 nm and emission of 590 nm.
(§6) This assay was performed on a fully automated linear track robotic platform (CRS F3 Robot System, Thermo Electron Corp., Ontario, Canada) utilizing several integrated peripherals for plate handling, liquid dispensing, and readout detection. […] The microplates are then placed at 37° C. for 48 hours to complete treatment of cells with compounds. Next, 5 ul of alamar blue was added using a liquid dispenser (FlexDrop Precision Dispenser, Perkin Elmer, Mass., USA) and incubated for 48 hours at 37° C. The alamar blue prompt fluorescence was measured on Victor V (Victor^3 V, Perkin Elmer, Mass., USA) and output data files were loaded into ORIS (Oncology Research Informatics System, MSKCC, NY, USA), a screening data acquisition and analysis platform. […]

H1118 = test: as above; settings: Homo sapiens, read-out: H1118 Dose Response (uM)
Experimental: as §1, §2, §3, §4, §5, §6

IC50 ([1]; Homo sapiens, NCI-H358, H358 (EGFR WT, KRAS G12C), read-out: IC50 H358): 1700 nM
IC50 ([1]; Homo sapiens, NCI-H460, H460 (EGFR WT, KRAS Q61H), read-out: IC50 H460): 3680 nM
IC50 ([1]; Homo sapiens, NCI-H820, H820 (EGFR T790M/DelE746-A750, KRAS WT), read-out: IC50 H820): 470 nM
IC50 ([1]; Homo sapiens, NCI-H1650, H1650 (EGFR DelE746-A750, KRAS WT), read-out: IC50 H1650): 1670 nM
IC50 ([1]; Homo sapiens, NCI-H1734, H1734 (EGFR WT, KRAS G13C), read-out: IC50 H1734): 3200 nM
IC50 ([1]; Homo sapiens, NCI-H1975, H1975 (KRAS WT), read-out: IC50 H1975): 760 nM
IC50 ([1]; Homo sapiens, NCI-H2030, H2030 (EGFR WT, KRAS G12C), read-out: IC50 H2030): 1380 nM
IC50 ([1]; Homo sapiens, NCI-H2122, H2122 (EGFR WT, KRAS G12C), read-out: IC50 H2122): 2160 nM
IC50 ([1]; Homo sapiens, NCI-H2444, H2444 (EGFR WT, KRAS G12V), read-out: IC50 H2444): 1050 nM
IC50 ([1]; Homo sapiens, NCI-H3255, H3255 (EGFR L858R, KRAS WT), read-out: IC50 H3255): 3160 nM
IC50 ([1]; Homo sapiens, A549 (EGFR WT, KRAS G12S), read-out: IC50 A549): 2130 nM
IC50 ([1]; Homo sapiens, H23 (EGFR WT, KRAS G12C), read-out: IC50 H23): 310 nM
IC50 ([1]; Homo sapiens, H1118 (EGFR L858R, KRAS WT), read-out: IC50 H1118): 830 nM
IC50 ([1]; Homo sapiens, PC9 (EGFR DclE746-A750, KRAS WT), read-out: IC50 PC9): 2000 nM
IC50 (H827): 0.71 µM
IC50 (H1118): 0.49 µM
SMILES: Cc1ccccc1-n1ncc(Cl)c(Cl)c1=O [compound 257017]
IC50 ([1]; HPL1D (SV40-immortalized human lung epithelian cells, EGFR WT, KRAS WT), read-out: IC50 HPL1D): 1140 nM
